Assay results as given in PMC12622802, “Potent kinase inhibitors from the Merck KGaA OGHL: Novel hits against Trypanosoma brucei with potential for repurposing” (PLOS Neglected Tropical Diseases, 2025).
“Also recorded” adds a separate entry of the source. Where two headings read alike, the source gives them in different places.

What was measured:
[1] = HAT regimens; cited from earlier work
[2] = Cytotoxicity, resazurin reduction assay, Raw264.7; type: cell-based, murine; conditions: mouse
Experimental: (§1) For cytotoxicity testing, they were seeded (90 µL) in 96-well plates at a density of 1x10^4 cells/well, in duplicate, and allowed to adhere overnight. […] Cell viability was then assessed using the resazurin reduction assay, as described above. […] Data were analysed using Microsoft Excel and GraphPad Prism 8.0. Nonlinear regression with a sigmoidal dose-response fit model was applied to the data to determine IC50 and CC50 values. Results represent the mean ± standard deviation (SD) from two independent experiments performed in duplicate.

[3] = test system: normal cells; parameters: method as in ref 37 = [37]; 37 Dorsch D , Wucherer-Plietker M , Mueller TJ , Merkul E . 3-([1,2,3]triazole-4-yl)-pyrrolo[2,3-b]pyridine derivates . World Intellectual Property Organization . 2010 . https://patents.google.com/pat; conditions: cited from earlier work
[4] = test system: bloodstream forms of T. b. brucei; assay: Trypanosome killing kinetics (time-kill assay); type: cell-based, Trypanosoma brucei brucei; conditions: 8IC50, 4IC50, IC50, 0.25IC50; over 72 hours
Experimental: (§2) To evaluate the killing kinetics of selected compounds, bloodstream forms of T. b. brucei (2 x 10⁵ cells/mL) were incubated in normal culture conditions in the presence of compounds at 8IC50, 4IC50, IC50, and 0.25IC50 concentrations in 24-well plates. Upon incubation, cultures were centrifuged at 0, 4, 8, 12, 24, 30, 36, 48, 60, and 72 hours’ time intervals at 2,500 rpm followed by motile trypanosomes enumeration using a Lumascope LS520 inverted microscope. To determine the mode of inhibition (parasitostatic or parasiticidal), a rescue experiment was conducted. Trypanosomes were exposed to the test doses (8IC50, 4IC50, IC50, and 0.25IC50) of the compounds for 4 hours. They were then washed three times with phosphate buffer saline (DPBS 1X), centrifuged at 2,500 rpm for 7 minutes, and resuspended in complete drug-free medium. These parasites were cultured under the same conditions, and motile organisms were enumerated with the Neubauer chamber at regular intervals over 72 hours. Data were plotted using GraphPad Prism 8.0 to determine the inhibition kinetics and classify the inhibitors as cidal or static. Pentamidine isethionate served as the reference compound and experiments were performed in duplicate.

[5] = test system: bloodstream forms of T. b. brucei Lister 427; assay: Resazurin reduction growth inhibition assay against bloodstream forms of T. b. brucei; type: cell-based, Trypanosoma brucei brucei; conditions: 72 hours, read-out: IC50 ± SD (µM) T. b. b.
Experimental: Bloodstream forms of T. b. brucei Lister 427, a virulent laboratory strain of Trypanosoma brucei were cultured in HMI-9 medium as previously described. […] The resulting signal measured between 570 nm and 590 nm, is directly proportional to the quantity of viable parasites. […] After incubation, a working solution of resazurin (0.15 mg/mL in DPBS) was added to the plates in a 1:10 (v/v) ratio, followed by incubation for 4 hours at 37 °C with 5% CO2. Fluorescence was measured using an Infinite M200 microplate reader (Tecan) at excitation and emission wavelengths of 530 nm and 590 nm, respectively. Compound achieving ≥ 50% inhibition of trypanosomes were selected for further dose-response studies.
Compounds that adhered to the cutoff criterion (≥ 50% inhibition) were serially diluted and tested for their half-maximal inhibitory concentrations (IC50). […] Dose-response curves were generated using GraphPad Prism software (version 8.0). […]
Data were analysed using Microsoft Excel and GraphPad Prism 8.0. Nonlinear regression with a sigmoidal dose-response fit model was applied to the data to determine IC50 and CC50 values.

[6] = Cytotoxicity, resazurin reduction assay, HepG2; type: cell-based, human; conditions: human
Experimental: Vero E6 (African green monkey kidney), Raw264.7 (murine macrophages) and HepG2 (human hepatocyte carcinoma) cell lines, sourced from the American Type Culture Collection, were cultured in DMEM supplemented with 10% (v/v) heat-inactivated fetal bovine serum, 1% (v/v) non-essential amino acids, and 1% (v/v) penicillin-streptomycin. Cells were maintained at 37 °C in a 5% CO2 atmosphere. For cytotoxicity testing, they were seeded (90 µL) in 96-well plates at a density of 1x10^4 cells/well, in duplicate, and allowed to adhere overnight. Serial dilutions (50-0.08 µM) of the compounds were prepared, and 10 µL of each were incubated with the monolayer for 48 hours. Podophyllotoxin was tested as a positive control at 10 μM and 0.5% DMSO (100% cell viability) was used as negative control. Cell viability was then assessed using the resazurin reduction assay, as described above. The 50% cytotoxic concentration (CC50) was calculated using GraphPad Prism software (version 8.0), and selectivity indices (SIs) were determined by dividing the […].
Data were analysed using Microsoft Excel and GraphPad Prism 8.0. Nonlinear regression with a sigmoidal dose-response fit model was applied to the data to determine IC50 and CC50 values. Results represent the mean ± standard deviation (SD) from two independent experiments performed in duplicate.

[7] = test system: bloodstream forms of T. b. brucei; assay: Rescue experiment (4 h exposure, washout, drug-free medium); type: cell-based, Trypanosoma brucei brucei; conditions: 72 hours monitoring, 4xIC50 and 8xIC50
Experimental: as §2

[8] = target: TANK-binding kinase 1 (TBK1); parameters: method as in ref 37 = [37]; 37 Dorsch D , Wucherer-Plietker M , Mueller TJ , Merkul E . 3-([1,2,3]triazole-4-yl)-pyrrolo[2,3-b]pyridine derivates . World Intellectual Property Organization . 2010 . https://patents.google.com/pat; conditions: cited from earlier work
[9] = Cytotoxicity, resazurin reduction assay, Vero; type: cell-based; conditions: African green monkey
Experimental: as §1

Structure (SMILES) | fatal encephalopathy, percentage of cases [1] | CC50 at 48 h [2] | CC50 [3] | activity profile in time-kill assay (trypanocidal or cytostatic) [4] | IC50 ([5]; Trypanosoma brucei, 72 h, confirmation screen, powdered form) | IC50 ([5]; Trypanosoma brucei, 72 h, primary screen, DMSO stock solution, bloodstream form T. b. brucei Lister 427) | IC50 ([5]; primary screen, DMSO stock solution, bloodstream form T. b. brucei Lister 427) | CC50 at 48 h [6] | effect after short exposure and washout (reversible or irreversible) [7] | IC50 [8] | CC50 at 48 h [9]
Nc1nc(N)nc(Nc2ccc([As]3SCC(CO)S3)cc2)n1 (centres unmarked) [melarsoprol] | 5–10% |  |  |  |  |  |  |  |  |  | 
Cn1cc(-c2cnc3[nH]cc(-c4cn(Cc5cccc(F)c5F)nn4)c3c2)cn1 [OGHL00169, 3-(1-(2,3-difluorobenzyl)-1H-1,2,3-triazol-4-yl)-5-(1-methyl-1H-pyrazol-4-yl)-1H-pyrrolo[2,3-b]pyridine] |  | 12100 ± 1600 nM | 1000 to 10000 nM | strong trypanocidal activity | 0.25 ± 0.04 µM | ≤ 1 µM | 0.85 ± 0.02 µM | 50000 nM | irreversible trypanocidal activity; also recorded: irreversible trypanocidal effects | 0.196 nM | 2800 ± 30 nM
